Where two headings read alike, the source gives them in different places.
Target: human TRPV4 (Homo sapiens (Human), UniProt Q9HBA0)
Assay: FLIPR assay for hTRPV4 expressed in BHK cells
Type: cell-based
Protocol: FLIPR Assay for hTRPV4 Expressed in BHK Cells:
TRPV4 channel activation results in an influx of divalent and monovalent cations including calcium. The resulting changes in intracellular calcium were monitored using a calcium specific fluorescent dye Fluo-4 (MDS Analytical Technologies). BHK/AC9 cells transduced with BacMam virus expressing the human TRPV4 gene at a MOI of 78 were plated in a 384 well poly-D lysine coated plate (15,000 cells/well in 50 μL culture medium containing DMEM/F12 with 15 mM HEPES, 10% FBS, 1% Penicillin-Streptomycin and 1% L-glutamine). Cells were incubated for 24 hours at 37° C. and 5% CO2. Culture medium was then aspirated using a Tecan plate-washer and replaced with 20 μL/well of dye loading buffer: HBSS, 500 μM Brilliant Black (MDS Analytical Technologies), and 2 μM Fluo-4 AM. Dye loaded plates were then incubated in the dark at room temperature for 1˜1.5 hours.

[1] = average in at least one set of experimental runs, inhibition of Agonist Compound-induced calcium signal, read-out: average IC50
[2] = inhibition of Agonist Compound-induced calcium signal (agonist at EC80), BHK/AC9 cells expressing human TRPV4, read-out: IC50

Sequence of human TRPV4 (Q9HBA0 whole entry): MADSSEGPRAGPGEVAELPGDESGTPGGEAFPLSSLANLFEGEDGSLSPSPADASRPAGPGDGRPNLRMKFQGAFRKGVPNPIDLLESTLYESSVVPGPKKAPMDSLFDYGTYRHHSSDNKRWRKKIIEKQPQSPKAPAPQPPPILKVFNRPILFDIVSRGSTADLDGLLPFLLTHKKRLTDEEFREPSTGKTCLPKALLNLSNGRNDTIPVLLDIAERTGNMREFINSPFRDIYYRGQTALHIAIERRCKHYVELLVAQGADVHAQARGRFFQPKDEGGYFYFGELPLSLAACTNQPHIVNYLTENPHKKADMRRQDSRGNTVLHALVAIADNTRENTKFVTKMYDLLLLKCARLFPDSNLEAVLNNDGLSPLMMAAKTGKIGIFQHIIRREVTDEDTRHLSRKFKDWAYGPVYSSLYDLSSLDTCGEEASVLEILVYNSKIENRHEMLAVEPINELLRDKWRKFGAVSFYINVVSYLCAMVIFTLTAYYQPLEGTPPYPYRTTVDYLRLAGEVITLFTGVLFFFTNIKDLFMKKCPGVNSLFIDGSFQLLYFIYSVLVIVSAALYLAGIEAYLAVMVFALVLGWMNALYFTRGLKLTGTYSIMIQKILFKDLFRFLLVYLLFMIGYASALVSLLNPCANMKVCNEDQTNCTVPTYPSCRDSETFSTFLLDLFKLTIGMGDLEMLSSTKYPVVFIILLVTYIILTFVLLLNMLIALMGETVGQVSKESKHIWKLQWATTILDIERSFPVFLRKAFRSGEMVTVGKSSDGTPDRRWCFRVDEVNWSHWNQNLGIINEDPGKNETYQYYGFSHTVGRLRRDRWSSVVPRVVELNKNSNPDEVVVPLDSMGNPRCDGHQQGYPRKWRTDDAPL

| SMILES | IC50 [1] | IC50 [2] |
| --- | --- | --- |
| N#Cc1ccc(C[C@H]2CN(S(=O)(=O)c3ccc(Cl)cc3Cl)C[C@@]2(O)CO)cc1F [Example 1, 4-(((3S,4R)-1-((2,4-dichlorophenyl)sulfonyl)-4-hydroxy-4-(hydroxymethyl)pyrrolidin-3-yl)methyl)-2-fluorobenzonitrile] | 8 nM | 0.1 to 10 nM |
| N#Cc1ccc(C[C@H]2CN(S(=O)(=O)c3ccc(C(F)(F)F)cc3Cl)C[C@@]2(O)CO)cc1 [Example 2, 4-(((3S,4R)-1-((2-chloro-4-(trifluoromethyl)phenyl)sulfonyl)-4-hydroxy-4-(hydroxymethyl)pyrrolidin-3-yl)methyl)benzonitrile] | – | 10 to 100 nM |
| N#Cc1ccc(C[C@H]2CN(S(=O)(=O)c3ccc(Cl)cn3)C[C@@]2(O)CO)c(OCC(F)(F)F)c1 [Example 3, 4-(((3S,4R)-1-((5-chloropyridin-2-yl)sulfonyl)-4-hydroxy-4-(hydroxymethyl)pyrrolidin-3-yl)methyl)-3-(2,2,2-trifluoroethoxy)benzonitrile] | – | 10 to 100 nM |
| N#Cc1ccc(C[C@H]2CN(S(=O)(=O)c3ccc(Cl)cc3Cl)C[C@]2(O)CO)cc1F [Example 4, 4-(((3S,4S)-1-((2,4-dichlorophenyl)sulfonyl)-4-hydroxy-4-(hydroxymethyl)pyrrolidin-3-yl)methyl)-2-fluorobenzonitrile] | – | 10 to 100 nM |
| N#Cc1ccc(C[C@H]2CN(S(=O)(=O)c3ccc(C(F)(F)F)cc3C#N)C[C@@]2(O)CO)cc1F [Example 5, 4-(((3S,4R)-1-((2-cyano-4-(trifluoromethyl)phenyl)sulfonyl)-4-hydroxy-4-(hydroxymethyl)pyrrolidin-3-yl)methyl)-2-fluorobenzonitrile] | – | 0.1 to 10 nM |
| N#Cc1ccc(S(=O)(=O)N2C[C@H](Cc3ccc(C#N)c(F)c3)[C@](O)(CO)C2)c(Cl)c1 [Example 6, 4-(((3S,4R)-1-((2-chloro-4-cyanophenyl)sulfonyl)-4-hydroxy-4-(hydroxymethyl)pyrrolidin-3-yl)methyl)-2-fluorobenzonitrile] | – | 0.1 to 10 nM |
| N#Cc1ccc(C[C@H]2CN(S(=O)(=O)c3ccc(Cl)cn3)C[C@@]2(O)CN)cc1F [Example 7, 4-(((3S,4S)-4-(aminomethyl)-1-((5-chloropyridin-2-yl)sulfonyl)-4-hydroxypyrrolidin-3-yl)methyl)-2-fluorobenzonitrile] | 10 nM | 0.1 to 10 nM |
